Reference: patent US20260285855A1, “HETEROARYL DERIVATIVES AS DDRS INHIBITORS” (CHIESI FARMACEUTICI S.P.A., priority 2023, published 2026)

Legend:
DDR1 = molecular target: T1, DDR1 (Homo sapiens, UniProt Q08345); experiment: LanthaScreen Europium Kinase Binding assay, DDR1; details: 5 nM DDR1, 20 nM Kinase Tracer 178, 1 h at rt; Ki from IC50 by Cheng-Prusoff; read-out: Ki DDR1
T1 construct: purchased Carna Biosciences
Protocol: (§1) DDR1 and DDR2 binding assays were performed using Life Technologies LanthaScreen™ Europium Kinase Binding assay. […] IC50 values were determined in GraphPad Prism 7.0 software, using 4 parameter model: log (inhibitor) vs. response. IC50 values were converted in Ki using the Cheng-Prusoff equation (Ki-IC50/(1+ [Tracer]/Kd).

DDR2 = molecular target: T2, DDR2 (Homo sapiens, UniProt Q16832); experiment: LanthaScreen Europium Kinase Binding assay, DDR2; details: 5 nM DDR2, 10 nM Kinase Tracer 178, 1 h at rt; Ki from IC50 by Cheng-Prusoff; read-out: Ki DDR2
T2 construct: purchased Life Technologies
T2 sequence (Q16832 22-855): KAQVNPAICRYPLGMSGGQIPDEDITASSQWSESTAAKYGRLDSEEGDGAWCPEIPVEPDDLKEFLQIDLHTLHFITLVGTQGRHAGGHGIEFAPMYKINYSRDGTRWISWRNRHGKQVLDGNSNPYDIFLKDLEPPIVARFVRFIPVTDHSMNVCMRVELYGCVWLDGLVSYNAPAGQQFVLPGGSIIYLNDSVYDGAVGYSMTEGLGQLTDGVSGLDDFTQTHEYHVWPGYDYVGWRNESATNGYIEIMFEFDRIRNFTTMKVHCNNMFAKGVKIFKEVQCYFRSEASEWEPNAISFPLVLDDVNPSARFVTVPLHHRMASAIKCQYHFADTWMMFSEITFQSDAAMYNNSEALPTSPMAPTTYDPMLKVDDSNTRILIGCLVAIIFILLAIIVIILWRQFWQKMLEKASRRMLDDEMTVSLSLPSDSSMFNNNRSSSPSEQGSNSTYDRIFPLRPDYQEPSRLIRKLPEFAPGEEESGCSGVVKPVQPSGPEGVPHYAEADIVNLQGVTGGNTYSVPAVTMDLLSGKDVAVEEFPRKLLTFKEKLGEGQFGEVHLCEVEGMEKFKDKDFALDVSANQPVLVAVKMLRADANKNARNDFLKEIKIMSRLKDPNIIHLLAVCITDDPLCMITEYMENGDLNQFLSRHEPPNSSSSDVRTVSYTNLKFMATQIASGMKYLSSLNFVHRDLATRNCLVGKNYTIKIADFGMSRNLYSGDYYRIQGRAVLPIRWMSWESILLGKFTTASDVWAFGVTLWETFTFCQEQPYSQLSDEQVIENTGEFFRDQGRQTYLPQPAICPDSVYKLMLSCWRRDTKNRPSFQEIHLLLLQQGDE
Protocol: as §1

T1 sequence (Q08345 19-913): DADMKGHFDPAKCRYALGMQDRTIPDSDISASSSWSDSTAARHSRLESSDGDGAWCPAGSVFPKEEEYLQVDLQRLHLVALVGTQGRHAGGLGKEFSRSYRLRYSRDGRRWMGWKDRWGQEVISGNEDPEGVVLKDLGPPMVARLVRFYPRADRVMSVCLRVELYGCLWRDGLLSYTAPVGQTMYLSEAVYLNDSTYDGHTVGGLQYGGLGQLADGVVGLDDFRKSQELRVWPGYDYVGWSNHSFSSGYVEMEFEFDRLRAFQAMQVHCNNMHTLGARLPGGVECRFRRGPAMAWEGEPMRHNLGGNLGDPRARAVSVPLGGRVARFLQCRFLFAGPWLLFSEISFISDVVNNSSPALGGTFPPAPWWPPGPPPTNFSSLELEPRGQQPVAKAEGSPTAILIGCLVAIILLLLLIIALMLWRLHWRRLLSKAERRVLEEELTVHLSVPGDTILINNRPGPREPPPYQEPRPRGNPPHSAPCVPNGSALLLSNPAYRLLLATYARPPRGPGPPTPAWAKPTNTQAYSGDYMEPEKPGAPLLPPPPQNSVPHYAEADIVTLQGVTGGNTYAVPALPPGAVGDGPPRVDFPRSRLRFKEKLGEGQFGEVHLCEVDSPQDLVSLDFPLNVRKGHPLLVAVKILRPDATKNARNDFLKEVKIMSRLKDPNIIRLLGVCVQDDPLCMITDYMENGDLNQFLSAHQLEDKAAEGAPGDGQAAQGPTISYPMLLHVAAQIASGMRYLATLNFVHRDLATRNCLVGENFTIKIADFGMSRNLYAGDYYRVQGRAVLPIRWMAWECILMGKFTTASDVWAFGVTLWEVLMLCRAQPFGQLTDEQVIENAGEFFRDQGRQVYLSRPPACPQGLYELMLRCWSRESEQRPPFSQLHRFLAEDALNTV

Compound	Ki (DDR1) [nM]	Ki (DDR2) [nM]
CSCn1ccn2ncc(C(=O)N3CC4(CC(NC(=O)Nc5cccc(C(F)(F)F)c5)C4)C3)c12 [Example 196, 1-(2-(1-((methylthio)methyl)-1H-imidazo[1,2-b]pyrazole-7-carbonyl)-2-azaspiro[3.3]heptan-6-yl)-3-(3-(trifluoromethyl)phenyl)urea]	< 5	5 to 25
CN(C(=O)Nc1cccc(C2(C(F)(F)F)CC2)c1)C1CC2(C1)CN(C(=O)c1cnn3ccn(C)c13)C2 [Example 198, 1-methyl-1-(2-(1-methyl-1H-imidazo[1,2-b]pyrazole-7-carbonyl)-2-azaspiro[3.3]heptan-6-yl)-3-(3-(1-(trifluoromethyl)cyclopropyl)phenyl)urea]	< 5	< 5
CN(C(=O)Nc1cc(Br)ccn1)C1CC2(C1)CN(C(=O)c1cnn3ccn(C)c13)C2 [Example 200, 3-(4-bromopyridin-2-yl)-1-methyl-1-(2-(1-methyl-1H-imidazo[1,2-b]pyrazole-7-carbonyl)-2-azaspiro[3.3]heptan-6-yl)urea]	< 5	5 to 25
COCCn1ccn2ncc(C(=O)N3CC4(CC(N(C)C(=O)Nc5cc(OC(F)(F)F)ccn5)C4)C3)c12 [Example 202, 1-(2-(1-(2-methoxyethyl)-1H-imidazo[1,2-b]pyrazole-7-carbonyl)-2-azaspiro[3.3]heptan-6-yl)-1-methyl-3-(4-(trifluoromethoxy)pyridin-2-yl)urea]	< 5	25 to 100
CN(C(=O)Nc1cc(OC(F)(F)F)ccn1)C1CC2(C1)CN(C(=O)c1ncnc3[nH]ccc13)C2 [Example 205, 1-(2-(7H-pyrrolo[2,3-d]pyrimidine-4-carbonyl)-2-azaspiro[3.3]heptan-6-yl)-1-methyl-3-(4-(trifluoromethoxy)pyridin-2-yl)urea]	< 5	5 to 25
CN(C(=O)Nc1cncc(C(F)(F)F)c1)C1CC2(C1)CN(C(=O)c1ncnc3[nH]ccc13)C2 [Example 206, 1-(2-(7H-pyrrolo[2,3-d]pyrimidine-4-carbonyl)-2-azaspiro[3.3]heptan-6-yl)-1-methyl-3-(5-(trifluoromethyl)pyridin-3-yl)urea]	< 5	5 to 25
CN(C(=O)Nc1cncc(SC(F)(F)F)c1)C1CC2(C1)CN(C(=O)c1cnn3ccn(C)c13)C2 [Example 207, 1-methyl-1-(2-(1-methyl-1H-imidazo[1,2-b]pyrazole-7-carbonyl)-2-azaspiro[3.3]heptan-6-yl)-3-(5-((trifluoromethyl)thio)pyridin-3-yl)urea]	< 5	5 to 25
CN(C(=O)Nc1cc(C(F)(F)F)cnn1)C1CC2(C1)CN(C(=O)c1cnn3ccn(C)c13)C2 [Example 208, 1-methyl-1-(2-(1-methyl-1H-imidazo[1,2-b]pyrazole-7-carbonyl)-2-azaspiro[3.3]heptan-6-yl)-3-(5-(trifluoromethyl)pyridazin-3-yl)urea]	5 to 25	25 to 100
CN(C(=O)Nc1cc(C(F)(F)F)ccn1)C1CC2(C1)CN(C(=O)c1cnn3ccn(CCO)c13)C2 [Example 209, 1-(2-(1-(2-hydroxyethyl)-1H-imidazo[1,2-b]pyrazole-7-carbonyl)-2-azaspiro[3.3]heptan-6-yl)-1-methyl-3-(4-(trifluoromethyl)pyridin-2-yl)urea]	< 5	5 to 25
COCCn1ccn2ncc(C(=O)N3CC4(CC(N(C)C(=O)Nc5cncc(C(F)(F)F)c5)C4)C3)c12 [Example 213, 1-(2-(1-(2-methoxyethyl)-1H-imidazo[1,2-b]pyrazole-7-carbonyl)-2-azaspiro[3.3]heptan-6-yl)-1-methyl-3-(5-(trifluoromethyl)pyridin-3-yl)urea]	5 to 25	25 to 100
CN(C(=O)Nc1cc(C(C)(C)C)no1)C1CC2(C1)CN(C(=O)c1cnn3ccn(C)c13)C2 [Example 215, 3-(3-(tert-butyl)isoxazol-5-yl)-1-methyl-1-(2-(1-methyl-1H-imidazo[1,2-b]pyrazole-7-carbonyl)-2-azaspiro[3.3]heptan-6-yl)urea]	5 to 25	25 to 100
CN(C(=O)Nc1cncc(C(F)(F)F)c1)C1CC2(C1)CN(C(=O)c1cnn3ccccc13)C2 [Example 216, 1-methyl-1-(2-(pyrazolo[1,5-a]pyridine-3-carbonyl)-2-azaspiro[3.3]heptan-6-yl)-3-(5-(trifluoromethyl)pyridin-3-yl)urea]	< 5	25 to 100

Other lines, results leading:

Ki (DDR1) [nM]	Ki (DDR2) [nM]	Compound
< 5	5 to 25	CN(C(=O)Nc1cncc(Br)c1)C1CC2(C1)CN(C(=O)c1cnn3ccn(C)c13)C2 [Example 197, 3-(5-bromopyridin-3-yl)-1-methyl-1-(2-(1-methyl-1H-imidazo[1,2-b]pyrazole-7-carbonyl)-2-azaspiro[3.3]heptan-6-yl)urea]
< 5	5 to 25	CN(C(=O)Nc1cc(C(C)(C)C(F)(F)F)on1)C1CC2(C1)CN(C(=O)c1cnn3ccn(C)c13)C2 [Example 199, 1-methyl-1-(2-(1-methyl-1H-imidazo[1,2-b]pyrazole-7-carbonyl)-2-azaspiro[3.3]heptan-6-yl)-3-(5-(1,1,1-trifluoro-2-methylpropan-2-yl)isoxazol-3-yl)urea]
< 5	5 to 25	Cc1ccc(OC(F)(F)F)cc1NC(=O)N(C)C1CC2(C1)CN(C(=O)c1ncnc3[nH]ccc13)C2 [Example 201, 1-(2-(7H-pyrrolo[2,3-d]pyrimidine-4-carbonyl)-2-azaspiro[3.3]heptan-6-yl)-1-methyl-3-(2-methyl-5-(trifluoromethoxy)phenyl)urea]
< 5	5 to 25	COCCn1ccn2ncc(C(=O)N3CC4(CC(N(C)C(=O)Nc5cccc(C(F)(F)F)c5)C4)C3)c12 [Example 203, 1-(2-(1-(2-methoxyethyl)-1H-imidazo[1,2-b]pyrazole-7-carbonyl)-2-azaspiro[3.3]heptan-6-yl)-1-methyl-3-(3-(trifluoromethyl)phenyl)urea]
< 5	5 to 25	CN(C(=O)Nc1cncc(OC(F)(F)F)c1)C1CC2(C1)CN(C(=O)c1ncnc3[nH]ccc13)C2 [Example 204, 1-(2-(7H-pyrrolo[2,3-d]pyrimidine-4-carbonyl)-2-azaspiro[3.3]heptan-6-yl)-1-methyl-3-(5-(trifluoromethoxy)pyridin-3-yl)urea]
< 5	< 5	CN(C(=O)Nc1cccc(S(F)(F)(F)(F)F)c1)C1CC2(C1)CN(C(=O)c1cnn3ccn(CCO)c13)C2 [Example 210, 1-(2-(1-(2-hydroxyethyl)-1H-imidazo[1,2-b]pyrazole-7-carbonyl)-2-azaspiro[3.3]heptan-6-yl)-1-methyl-3-(3-(pentafluoro-16-sulfaneyl)phenyl)urea]
5 to 25	25 to 100	COc1c(CO)cc(OC(F)(F)F)cc1NC(=O)NC1CC2(C1)CN(C(=O)c1cnn3ccncc13)C2 [Example 212, 1-(3-(hydroxymethyl)-2-methoxy-5-(trifluoromethoxy)phenyl)-3-(2-(pyrazolo[1,5-a]pyrazine-3-carbonyl)-2-azaspiro[3.3]heptan-6-yl)urea]
< 5	5 to 25	CN(C(=O)Nc1cncc(C(F)(F)F)c1)C1CC2(C1)CN(C(=O)c1cnn3ccc(N4CCCC4)cc13)C2 [Example 214, 1-methyl-1-(2-(5-(pyrrolidin-1-yl)pyrazolo[1,5-a]pyridine-3-carbonyl)-2-azaspiro[3.3]heptan-6-yl)-3-(5-(trifluoromethyl)pyridin-3-yl)urea]
